Patent US6410253B1, “Cholesterol oxidase” (priority 1990, dated 2002)

Tests used:
Format in all cases: biochemical, Brevibacterium sterolicum ATCC 21387
cholesterol oxidase I [1] = molecular target: T1, cholesterol oxidase I (Brevibacterium sterolicum, UniProt P22637); assay: Influence of inhibitor on cholesterol oxidase I activity; settings: inhibitor 1 mM; activity in the absence of inhibitor = 100
Procedure: (§1) Relative activity is shown in Table 2, in the presence of an inhibitor at a concentration of 1 mM, when in the absence of the inhibitor, the activities of cholesterol oxidases I and II are regarded as 100.
The amount of enzyme which catalyzes the reaction of decomposing 1 μmole of cholesterol at 37° C. for one minute in the presence of oxygen is defined as one unit. The titer is determined as follows. While shaking, the enzyme acts on cholesterol and 4-aminoantipyrine and phenol are reacted with the formed hydrogen peroxide in the presence of peroxidase to form quinonimine pigment. Absorption of the thus formed quinonimine pigment in the visible region is measured to determine the amount of hydrogen peroxide generated. Thus, the titer of the enzyme is determined. Hereafter specific activity is defined as activity per 1 mg of protein (unit/mg). Furthermore, an amount of enzyme protein is determined by absorbance at 280 nm (1 mg/ml when absorbance is 1). […]

cholesterol oxidase II [2] = assay: Influence of inhibitor on cholesterol oxidase II activity; settings: for Inhibition of the enzyme (in words): cholesterol oxidase II; for Relative Activity (%) of cholesterol oxidase II in the presence of inhibitor: inhibitor 1 mM, activity in the absence of inhibitor = 100
Procedure: as §1
(§2) The amount of enzyme which catalyzes the reaction of decomposing 1 μmole of cholesterol at 37° C. for one minute in the presence of oxygen is defined as one unit. The titer is determined as follows. While shaking, the enzyme acts on cholesterol and 4-aminoantipyrine and phenol are reacted with the formed hydrogen peroxide in the presence of peroxidase to form quinonimine pigment. Absorption of the thus formed quinonimine pigment in the visible region is measured to determine the amount of hydrogen peroxide generated. Thus, the titer of the enzyme is determined. Hereafter specific activity is defined as activity per 1 mg of protein (unit/mg). Furthermore, an amount of enzyme protein is determined by absorbance at 280 nm (1 mg/ml when absorbance is 1).
In a test tube, there are charged 1.0 ml of 3 mM cholesterol solution (which is prepared by adding 6 ml of 50 mM cholesterol ethanol solution to 94 ml of 1.05% Triton X-100 solution with stirring, heating the mixture for 10 minutes on a water bath, cooling the mixture in water, adding distilled water to the mixture until the total volume is 100 ml; and is not allowed to be used 30 minutes or longer after preparation) , 0.3 ml of 50 mM sodium bilate solution, 0.3 ml of 0.5 mM potassium-sodium phosphate buffer (pH 6.6), 0.5 ml of 42 mM phenol, 0.5 ml of 2.4 mM 4-aminoantipyrine and 0.2 ml of 115 units/ml horseradish-derived peroxidase. The mixture is agitated. After maintaining at 37° C. for 3 minutes, 0.2 ml of an enzyme solution is added to the mixture. While shaking, the reaction is carried out at 37° C. for 5 to 10 minutes. Then, absorbance is measured at 500 nm (OD 500 nm)

cholesterol oxidase I [3] = molecular target: T1, cholesterol oxidase I; assay: Substrate specificity of cholesterol oxidase I (relative activity on sterol substrates); settings: cholesterol = 100
Procedure: as §2, with “(unit/mg).” for “(unit/mg). Furthermore, an amount of enzyme protein is determined by absorbance at 280 nm (1 mg/ml when absorbance is 1).”
(§3) The enzyme activity is determined by reacting hydrogen peroxide generated by the enzyme with 4-aminoantipyrine and phenol in the presence of peroxidase and quantitatively determining the formed quinonimine pigment. The reaction is shown by the following equations (1) and (2). [drawing 3]
(§4) The mixture is agitated. After maintaining at 37° C. for 3 minutes, 0.2 ml of an enzyme solution is added to the mixture. While shaking, the reaction is carried out at 37° C. for 5 to 10 minutes. Then, absorbance is measured at 500 nm (OD 500 nm)

cholesterol oxidase II [4] = assay: Substrate specificity of cholesterol oxidase II (relative activity on sterol substrates); settings: for Relative Activity (%) of cholesterol oxidase II on substrate: cholesterol = 100; for Substrate specificity (acts / does not act on): cholesterol oxidase II
Procedure: as §2, with “(unit/mg).” for “(unit/mg). Furthermore, an amount of enzyme protein is determined by absorbance at 280 nm (1 mg/ml when absorbance is 1).”
as §3, §4

T1 sequence (P22637 46-552): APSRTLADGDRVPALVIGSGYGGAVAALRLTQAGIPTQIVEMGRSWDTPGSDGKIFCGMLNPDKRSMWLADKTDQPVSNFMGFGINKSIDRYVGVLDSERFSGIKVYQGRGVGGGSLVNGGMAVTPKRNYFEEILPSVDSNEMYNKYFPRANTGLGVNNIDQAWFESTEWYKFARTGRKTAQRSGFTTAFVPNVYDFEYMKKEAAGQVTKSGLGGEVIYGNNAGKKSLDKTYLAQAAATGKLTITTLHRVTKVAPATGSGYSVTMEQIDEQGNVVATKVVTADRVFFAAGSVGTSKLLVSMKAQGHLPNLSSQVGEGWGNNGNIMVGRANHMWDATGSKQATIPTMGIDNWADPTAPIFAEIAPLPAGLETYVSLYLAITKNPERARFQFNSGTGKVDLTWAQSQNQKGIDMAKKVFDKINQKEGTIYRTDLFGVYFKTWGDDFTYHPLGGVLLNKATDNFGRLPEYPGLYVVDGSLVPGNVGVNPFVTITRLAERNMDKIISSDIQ

Compound | Relative Activity (%) of cholesterol oxidase I in the presence of inhibitor (cholesterol oxidase I [1]) | Inhibition of the enzyme (in words) (cholesterol oxidase II [2]) | Relative Activity (%) of cholesterol oxidase II in the presence of inhibitor (cholesterol oxidase II [2]) | Relative Activity (%) of cholesterol oxidase I on substrate (cholesterol oxidase I [3]) | Relative Activity (%) of cholesterol oxidase II on substrate (cholesterol oxidase II [4]) | Substrate specificity (acts / does not act on) (cholesterol oxidase II [4])
O=[N+]([O-])[O-].[Ag+] [AgNO3, silver nitrate] | 0% | inhibited | 1.0% |  |  | 
C[C@]12CC[C@@H](O)C[C@@H]1CC[C@@H]1[C@@H]2CC[C@]2(C)C(=O)CC[C@@H]12 [Androsterone] |  |  |  | 0% | 0% | does not act on
CCCCC/C=C\C/C=C\CCCCCCCC(=O)O[C@H]1CC[C@@]2(C)C(=CC[C@H]3[C@@H]4CC[C@H]([C@H](C)CCCC(C)C)[C@@]4(C)CC[C@@H]32)C1 [Cholesterol linoleate] |  |  |  | 0% | 0% | does not act on
CC(C)CCC[C@@H](C)[C@H]1CC[C@H]2[C@@H]3CC=C4C[C@@H](O)CC[C@]4(C)[C@H]3CC[C@]12C [Cholesterol, 5-cholesten-3-β-ol] |  |  |  | 100% | 100% | 
C[C@]12CC[C@H](O)CC1=CC[C@@H]1[C@@H]2CC[C@]2(C)C(=O)CC[C@@H]12 [Dehydroisoandrosterone] |  |  |  | 41.4% | 13.0% | 
C[C@]12CC[C@@H]3c4ccc(O)cc4CC[C@H]3[C@@H]1CC[C@@H]2O [Estradiol] |  |  |  | 0% |  | 
CC(C)=CCC[C@@H](C)[C@H]1CC[C@@]2(C)C3=C(CC[C@]12C)[C@@]1(C)CC[C@H](O)C(C)(C)[C@@H]1CC3 [Lanosterol] |  |  |  | 0% | 0% | does not act on
CC(=O)[C@H]1CC[C@H]2[C@@H]3CC=C4C[C@@H](O)CC[C@]4(C)[C@H]3CC[C@]12C [Pregnenolone] |  |  |  | 22.4% | 32.9% | 
CC[C@H](/C=C/[C@@H](C)[C@H]1CC[C@H]2[C@@H]3CC=C4C[C@@H](O)CC[C@]4(C)[C@H]3CC[C@]12C)C(C)C [Stigmasterol] |  |  |  | 10.0% | 64.4% | 
C=C1CC[C@H](O)C/C1=C/C=C1\CCC[C@]2(C)[C@@H]([C@H](C)CCCC(C)C)CC[C@@H]12 [Vitamin D3] |  |  |  | 0% | 0% | does not act on
Oc1cccc2cccnc12 [o-Hydroxyquinoline] |  | inhibited | 91.3% |  |  | 
O=S(=O)(O)c1cc[c]([Hg][Cl])cc1 [p-Chloromercury benzenesulfonate] | 80.0% | inhibited | 87.0% |  |  | 
CC[C@H](CC[C@@H](C)[C@H]1CC[C@H]2[C@@H]3CC=C4C[C@@H](O)CC[C@]4(C)[C@H]3CC[C@]12C)C(C)C [β-Sitosterol] |  |  |  | 19.7% | 82.0% | 
